Test results: patent US9017654B2, “Preparation for vaccination, vaccination method and use of a vaccination preparation” (priority 2004, dated 2015)

Columns and labels:
[1] = tested on: CFSE-marked syngenic spleen cells charged with SGP peptide (target cells for the CTLs); test: In vivo killer assay; parameters: species or system mice; settings: for specific reaction (FIG. 2, functionality of transcutaneously activated CTL): transcutaneous treatment, in vivo killer assay 6 days after immunisation
Procedure: The specific cytotoxic functionality of the activated cells was determined by means of what is known as an in vivo killer assays 6 days after the last immunisation. For this purpose spleen cells marked with CFSE (5,6-carboxyfluorescein diacetate succinimidylester, Molecular Probes) from syngenic mice were used as target cells for the cytotoxic T cells (CTLs). Half of the cells were dyed with 3 μM CFSE, the other half with 0.3 μM CFSE. The cells marked with 3 μM CFSE were charged with the synthetic SGP peptide (10 μM peptide; 40×10^6 cells per ml ISC medium; 1 h; 37° C.) and these were then washed twice with medium and twice with PBS. The cells marked with 0.3 μM CFSE were only incubated in ISC medium and also washed. The cells were mixed in a ratio of 1:1 and the mice were injected in vivo with 15×10^6 cells in 300 μl PBS in each case. After 18 h the mice were killed and the spleen cells removed and flow cytometrically analysed. The CFSE-positive cells were counted in a FACS-Canto flow cytometer. The specific lysis resulted from the ratio of cell counts of the cells charged with peptide and strongly marked with CFSE and the cells that were not charged with peptide and were weakly marked with CFSE. Since the two cell populations had been used in a ratio of 1:1 the number of cells not charged with peptide tallies with the original number of cells charged with peptide. The specific lysis is then calculated as follows:
[formula] [formula] CFSE Marking
The spleen cells were prepared as described above. Following ACK lysis the cells were resuspended in 10 ml PBS, counted and adjusted to 2×10^7 cells per ml. The cell suspension was mixed with an adequate volume of a 6 μM or 0.6 μM CFSE solution (in PBS) and incubated for 4 min at 37° C. The reaction was then stopped following addition of double the volume of ISC medium supplemented with 10% foetal calf serum (FCS). The cells were washed twice with FCS-free medium and counted.
To determine the functionality of the activated cells an in vivo killer assay was carried out 6 days after immunisation. For this purpose syngenic spleen cells marked with a high CFSE concentration were charged with peptide, mixed 1:1 with cells marked with a weak CFSE concentration and not charged with peptide and transferred i.v. into the mice. […] The fluorescence of the spleen cells in the FL-1 channel (CFSE) can be seen in each case. The lysis was calculated to the number of uncharged cells and is given in percent (B).
To determine the functionality of the activated cells an in vivo killer assay was carried out 6 days after immunisation. […] The fluorescence of the spleen cells in the FL-1 channel (CFSE) can be seen in each case. The specific lysis was calculated to the number of uncharged cells and is given in percent.

[2] = tested on: TCR transgenic cytotoxic T cells (CTL), CD45.1-positive CD8+; test: Analysis of the number of adoptively transferred transgenic cytotoxic T cells (CTL) in blood/spleen after immunisation (flow cytometry); assay type: in vivo, mice
Excerpt: In this model a defined transgenic, which codes for a specific T cell receptor that recognises a specific MHC class I ligand ([…] (SEQ ID NO: 23); abbreviated to SGP) from the adenovirus type 5 in the context of MHC class I (H2-D^b), was introduced into mice. As already characterised by the inventors [“M. Hofmann, M. Radask, G. Rechtsteiner, K. Wiemann, M. Grander, U. Bien-Gräter, R. Offfringa, R.E.M. Toes, H.G. Rammensee, H. Schild; T cell avidity determines the level of CTL activation; Eur. J. Immunol. 2004: 34, 1798 to 1806”], the cytotoxic T cells (CTL) from these animals were only activated if they came into contact with this MHC class I ligand SGP in the context of H2-D^b. To be able to follow the activation of this CTL in the recipient animal the non-activated (naïve) CTL from transgenic donor mice was intravenously (i.v.) injected into syngenic recipient mice which differed in the allele of a lymphocyte marker (CD45.1 on transgenic cells or CD45.2 on cells of the recipient mice). […]
To measure the proliferation of the adoptively transferred cells blood was taken from the tail vein of the mice 4 days after the last immunisation and the blood sample was analysed flow cytometrically. […] For flow cytometric analysis of the cells they were stained with fluorescence-marked antibodies (anti-CD8 APC-Cy7-conjugated, anti-CD45.1 PE-conjugated (commercially available from Becton-Dickinson Pharmingen, Hamburg)) and, more precisely, for 30 min in 50 μl FACS buffer on ice in 96-well circular bottomed plates. The cells were washed twice with FACS buffer and analysed in a FACS-canto flow cytometer (Becton-Dickinson Pharmingen, Hamburg). […]
The transgenic CD8^+ cell content in the total population of CD8^+ cells was flow cytometrically determined in the blood or spleen. […] The fluorescence in the FL-2 channel (PE) of the CD8^+ lymphocytes can be seen in each case. […] In all mice the transgenic CD8^+ cells content prior to immunisation and 4 days after immunisation was determined in the spleen (A).

Compound | specific reaction (FIG. 2, functionality of transcutaneously activated CTL) [1] | Specific lysis (%) ([1]; Group 3: 50 μg peptide (i.d.) alone, 6 days after immunisation) | functional activation of the CTL ([1]; immunisation with peptide only (group Mouse 3), FIG. 1B) | % transgenic CD8+ in total CD8+, Day 4 Blood ([2]; Group 3: 50 μg peptide (i.d.) alone, day 4, blood) | % transgenic CD8+ in total CD8+, Day 6 Spleen ([2]; Group 3: 50 μg peptide (i.d.) alone, day 6, spleen) | increase in transgenic cells ([2]; peptide applied on its own (without additives, adjuvants))
CC(C)Cn1cnc2c(N)nc3ccccc3c21 [imiquimod, 1-(2-methylpropyl-)1H-imidazo[4,5-c]quinolin-4-amine, reference compound] | did not exhibit a specific reaction |  |  |  |  | 
SGPSNTPPEI (Adenovirus type 5) [peptide, MHC class I ligand (H2-Db) from the E1A protein of adenovirus type 5, synthetically produced] | did not exhibit a specific reaction | 3.51% | does not lead to functional activation | 4.38% | 2.04% | only a marginal increase
